In patent publication US12377035B2, “Peptides for inhibiting cholinergic calcitonin gene-related peptide (CGRP) and acetylcholine (ACH) release or inhibiting sensitization-mediated by TRPV1-mediated excitability in sensory neurons and methods of use thereof” (AZIENDE CHIMICHE RIUNITE ANGELINI FRANCESCO—A.C.R.A.F. …, priority 2018, dated 2025):
Residues, ends and D or L forms follow the SMILES beside them. *: point of attachment. Palmitoyl = CCCCCCCCCCCCCCCC(=O)*

Legend:
Format in all cases: cell-based
[1] = test system: human epidermal keratinocytes (HEKa); experiment: MTT cell viability assay on epidermal keratinocytes; settings: for % inhibition cell viability: HEKa, 24 hours; for effect on cell viability (in words): human epidermal keratinocytes, up to 200 μM
Description: (§1) This example evaluated effects of the peptides of invention on human epidermal keratinocytes and dermal fibroblasts. Cell viability was determined with the 3-(4,5-dimethyl-2-thiazolyl)-2,5-diphenyl-2H-tetrazolium bromide (MTT) assay. The MTT assay is a colorimetric reaction based on the capacity of the mitochondrial dehydrogenase enzyme to break and transform the tetrazolium rings of MTT. Epidermal keratinocytes (HEKa) were seeded in a previously coated 96 well-plate at 50-60% confluence in 100 μL of supplemented corresponding medium. Dermal fibroblasts (HDFa) were seeded in a 96 well-plate at 70% confluence in 100 μL supplemented medium. For both cell lines, 24 hours after seeding, medium was replaced by fresh supplemented medium containing peptides dissolved at concentration range between 0.1 and 200 μM. All test substances were incubated for 24 hours at 37° C. and 5% CO2. Afterwards, medium was replaced by 0.5 mg/ml of MTT solution for 4 hours in complete medium. Then, medium was carefully removed and 150 μL/well of DMSO were added to solubilize formazan crystals. Plate was protected from light, shaken for 60 seconds and optical density was measured at 570 nm with a reference filter of 620 nm. Table F details effects of peptides of invention on keratinocytes and fibroblasts cell viability expressed as percentage of inhibition.

[2] = test system: acetylcholine release, human neuroblastoma cell line differentiated to cholinergic neuronal phenotype; experiment: Inhibition of KCl-induced acetylcholine release in a neuroblastoma cell line (Amplex Red); settings: for % Ach release inhibition: 50 mM KCl
Description: To determine the compound of the invention effects on acetylcholine release, a human neuroblastoma cell line (50.000 cells/well) was used. Cells were differentiated to cholinergic neuronal phenotype for 4 days. Then, cells were pre-incubated for 60 minutes with the compounds (between 0.1 and 100 μM) as acetyl- or palmitoyl-form and conjugated with trifluoroacetate (TFA) or acetate salt. Afterwards, acetylcholine release was induced by membrane depolarization evoked by 15 minutes incubation with 50 mM KCl. Acetylcholine level in supernatants was quantified by using Amplex® Red Acetylcholine Assay Kit (Thermofisher) following manufacturer's instructions. […] Fluorescence (Ex 530 nm/Em 590 nm) was measured in FluorStar equipment. Acetylcholine content was normalized to the total protein content using BCA assay (Pierce) following manufacturer's instructions. Fluorescence measurements were normalized to the maximum signal detected with KCl stimulation in vehicle treated cells. Vesicle exocytosis disruption by the compounds of the invention lead to a decrease of acetylcholine release (Table E).

[3] = test system: human dermal fibroblasts (HDFa); experiment: MTT cell viability assay on dermal fibroblasts; settings: for % inhibition cell viability: HDFa, 24 hours; for effect on cell viability (in words): dermal fibroblast, up to 200 μM
Description: as §1

[4] = test system: CGRP induced-release on peptidergic sensory neurons (dorsal root ganglia); experiment: Inhibition of capsaicin-induced CGRP release on cultured sensory neurons (CGRP EIA); settings: 1 hour, 1 μM capsaicin 10 min
Description: The induction of the release of calcitonin-gene related peptide (CGRP) with capsaicin enables direct measurement of neuronal exocytosis (Meng J. et al., J. Cell. Sci. (2007) 15; 120(Pt 16):2864-74, and Meng J. et al., Mol. Neurobiol. (2014); 50(2):574-88).
The tested peptides were evaluated by measuring their capability of inhibiting CGRP induced-release on peptidergic sensory neurons. Dorsal root ganglia were seeded (50.000 cells/well) in a 96-well plate previously coated with poly-L-lysine and laminin. After 48 hours seeding, cells were incubated with Hank's Balanced salt solution containing peptides of invention at 20, 50 or 100 μM for 1 hour. Next, cells were stimulated for 10 min with 1 μM capsaicin at 37° C. Then, CGRP content was determined in supernatants using colorimetric based CGRP EIA (Spi-Bio Inc) following manufacturer's instructions. Absorbance measurements (405 nm) were standardized with regard to the maximum signal detected with capsaicin stimulation in vehicle treated cells. Inhibition values of CGRP release were calculated as percentages by considering maximum signal to capsaicin-induced release and minimum as non-stimulated cells. Table D details inhibition values of […] obtained for the peptides of invention.

CCCCCCCCCCCCCCCC(=O)N[C@@H](Cc1c[nH]c2ccccc12)C(=O)N[C@@H](CCC(=O)O)C(=O)N[C@@H](CCC(N)=O)C(=O)N[C@@H](CCC(=O)O)C(=O)N[C@@H](Cc1ccccc1)C(=O)N[C@@H](CC(C)C)C(=O)N[C@@H](CCCNC(=N)N)C(=O)N[C@@H](CCCNC(=N)N)C(N)=O [SEQ ID NO: 5 palmitoyl, WEQEFLRR] (Palmitoyl-WEQEFLRR-NH2)
% inhibition cell viability ([1]; 1 μM): −2.9% | % inhibition cell viability ([1]; 5 μM): −5.5% | % inhibition cell viability ([1]; 10 μM): −6.3% | % inhibition cell viability ([1]; 50 μM): −24.3% | % Ach release inhibition ([2]; TFA salt, 0.1 μM): 16.4% | % Ach release inhibition ([2]; TFA salt, 1 μM): 16.1% | % Ach release inhibition ([2]; TFA salt, 5 μM): 25.1% | % Ach release inhibition ([2]; TFA salt, 10 μM): 24.7% | % Ach release inhibition ([2]; TFA salt, 50 μM): 17.9% | % inhibition cell viability ([3]; 1 μM): −0.2% | % inhibition cell viability ([3]; 5 μM): 10.3% | % inhibition cell viability ([3]; 10 μM): 7.6% | % inhibition cell viability ([3]; 50 μM): 18.0%

CCCCCCCCCCCCCCCC(=O)N[C@@H](CC(C)C)C(=O)N[C@@H](CCCNC(=N)N)C(=O)N[C@H](C(=O)N[C@@H](CCC(N)=O)C(=O)N[C@@H](CCSC)C(=O)N[C@H](C(=O)N[C@@H](CC(N)=O)C(=O)N[C@@H](CCSC)C(=O)N[C@@H](Cc1ccccc1)C(=O)N[C@@H](CC(C)C)C(N)=O)C(C)C)C(C)C [SEQ ID NO: 4 palmitoyl, LRVQMVNMFL] (Palmitoyl-LRVQMVNMFL-NH2)
% inhibition cell viability ([1]; 0.1 μM): −6.2% | % inhibition cell viability ([1]; 0.5 μM): 1.0% | % inhibition cell viability ([1]; 1 μM): −7.6% | % inhibition cell viability ([1]; 5 μM): 7.0% | % inhibition cell viability ([1]; 10 μM): 18.0% | % inhibition cell viability ([1]; 50 μM): 34.2% | effect on keratinocyte viability (in words) ([1]; assessed below 50 μM): did not modify keratinocyte viability | % Ach release inhibition ([2]; TFA salt, 5 μM): 26.4% | % Ach release inhibition ([2]; TFA salt, 50 μM): 83.0% | % inhibition cell viability ([3]; 0.1 μM): 15.2% | % inhibition cell viability ([3]; 0.5 μM): 26.9% | % inhibition cell viability ([3]; 1 μM): 34.2% | % inhibition cell viability ([3]; 5 μM): 42.6% | % inhibition cell viability ([3]; 10 μM): 40.9% | % inhibition cell viability ([3]; 50 μM): 37.7%

CCCCCCCCCCCCCCCC(=O)N[C@@H](CCCNC(=N)N)C(=O)N[C@@H](CCCNC(=N)N)C(=O)N[C@H](C(=O)N[C@H](C(=O)N[C@@H](CC(C)C)C(=O)N[C@H](C(=O)N[C@@H](CC(N)=O)C(=O)N[C@@H](CC(N)=O)C(=O)N[C@H](C(=O)N[C@@H](CC(C)C)C(N)=O)[C@@H](C)CC)C(C)C)C(C)C)C(C)C [SEQ ID NO: 3 palmitoyl, RRVVLVNNIL] (Palmitoyl-RRVVLVNNIL-NH2)
% inhibition cell viability ([1]; 0.1 μM): −3.8% | % inhibition cell viability ([1]; 0.5 μM): −0.9% | % inhibition cell viability ([1]; 1 μM): 11.7% | % inhibition cell viability ([1]; 5 μM): 9.9% | % inhibition cell viability ([1]; 10 μM): 22.4% | % inhibition cell viability ([1]; 50 μM): 24.8% | effect on keratinocyte viability (in words) ([1]; at 1 µM or below): did not modify keratinocyte and fibroblast viability | % CGRP release inhibition ([4]; peptide 20 μM): 34.0% | % CGRP release inhibition ([4]; peptide 50 μM): 74.8% | % Ach release inhibition ([2]; Acetate salt, 0.1 μM): 57.0% | % Ach release inhibition ([2]; Acetate salt, 1 μM): 92.5% | % Ach release inhibition ([2]; Acetate salt, 10 μM): 86.7% | % Ach release inhibition ([2]; TFA salt, 5 μM): 75.4% | % Ach release inhibition ([2]; TFA salt, 10 μM): 81.8% | % Ach release inhibition ([2]; TFA salt, 50 μM): 82.8% | activity on ACh release (in words) ([2]; lowest concentration tested 0.1 μM): active | % inhibition cell viability ([3]; 0.1 μM): 6.0% | % inhibition cell viability ([3]; 0.5 μM): 15.5% | % inhibition cell viability ([3]; 1 μM): 8.7% | % inhibition cell viability ([3]; 5 μM): 25.7% | % inhibition cell viability ([3]; 10 μM): 27.2% | % inhibition cell viability ([3]; 50 μM): 24.3% | effect on fibroblast viability (in words) ([3]; at 1 µM or below): did not modify keratinocyte and fibroblast viability

Ac-LRVQMVNMFL-NH2 [SEQ ID NO: 4 acetyl, LRVQMVNMFL]
% inhibition cell viability ([1]; 1 μM): 13.6% | % inhibition cell viability ([1]; 5 μM): 2.6% | % inhibition cell viability ([1]; 10 μM): 6.0% | % inhibition cell viability ([1]; 50 μM): 19.5% | % inhibition cell viability ([1]; 100 μM): 31.6% | % inhibition cell viability ([1]; 200 μM): 41.1% | effect on keratinocyte viability (in words) ([1]; assessed below 50 μM): did not modify keratinocyte viability | % CGRP release inhibition ([4]; peptide 20 μM): 14.2% | % CGRP release inhibition ([4]; peptide 100 μM): 77.4% | % Ach release inhibition ([2]; Acetate salt, 0.1 μM): around 40% | % Ach release inhibition ([2]; TFA salt, 10 μM): 84.3% | % Ach release inhibition ([2]; TFA salt, 50 μM): 58.9% | % Ach release inhibition ([2]; TFA salt, 100 μM): 6.8% | % inhibition cell viability ([3]; 1 μM): 14.5% | % inhibition cell viability ([3]; 5 μM): 28.4% | % inhibition cell viability ([3]; 10 μM): 37.1% | % inhibition cell viability ([3]; 50 μM): 40.6% | % inhibition cell viability ([3]; 100 μM): 41.5% | % inhibition cell viability ([3]; 200 μM): 22.9%

Ac-WEQEFLRR-NH2 [SEQ ID NO: 5 acetyl, WEQEFLRR]
% inhibition cell viability ([1]; 1 μM): −5.7% | % inhibition cell viability ([1]; 5 μM): 0.8% | % inhibition cell viability ([1]; 10 μM): 4.2% | % inhibition cell viability ([1]; 50 μM): 4.3% | % inhibition cell viability ([1]; 100 μM): 10.4% | % inhibition cell viability ([1]; 200 μM): 23.7% | effect on cell viability (in words) [1]: did not modify cell viability | % Ach release inhibition ([2]; Acetate salt, 0.1 μM): around 40% | % Ach release inhibition ([2]; TFA salt, 0.1 μM): 19.0% | % Ach release inhibition ([2]; TFA salt, 1 μM): 22.0% | % Ach release inhibition ([2]; TFA salt, 10 μM): 52.8% | % Ach release inhibition ([2]; TFA salt, 50 μM): 51.5% | % Ach release inhibition ([2]; TFA salt, 100 μM): 81.6% | % inhibition cell viability ([3]; 1 μM): 9.3% | % inhibition cell viability ([3]; 5 μM): 10.0% | % inhibition cell viability ([3]; 10 μM): 12.1% | % inhibition cell viability ([3]; 50 μM): 10.0% | % inhibition cell viability ([3]; 100 μM): 15.0% | % inhibition cell viability ([3]; 200 μM): 14.7% | effect on cell viability (in words) [3]: did not modify cell viability

Ac-MQVWLRMWIDYRAT-NH2 [SEQ ID NO: 2 acetyl, MQVWLRMWIDYRAT]
% inhibition cell viability ([1]; 1 μM): −1.2% | % inhibition cell viability ([1]; 5 μM): −1.8% | % inhibition cell viability ([1]; 10 μM): −0.5% | % inhibition cell viability ([1]; 50 μM): −4.6% | % inhibition cell viability ([1]; 100 μM): −0.7% | % inhibition cell viability ([1]; 200 μM): 1.2% | effect on cell viability (in words) [1]: did not modify cell viability | % CGRP release inhibition ([4]; peptide 20 μM): 49.3% | % CGRP release inhibition ([4]; peptide 100 μM): 55.3% | % Ach release inhibition ([2]; Acetate salt, 1 μM): 41.0% | % Ach release inhibition ([2]; Acetate salt, 10 μM): 55.8% | % Ach release inhibition ([2]; TFA salt, 5 μM): 76.2% | % Ach release inhibition ([2]; TFA salt, 10 μM): 78.8% | % Ach release inhibition ([2]; TFA salt, 20 μM): 10.9% | % inhibition cell viability ([3]; 1 μM): 10.1% | % inhibition cell viability ([3]; 5 μM): 12.3% | % inhibition cell viability ([3]; 10 μM): 8.5% | % inhibition cell viability ([3]; 50 μM): 1.4% | % inhibition cell viability ([3]; 100 μM): 7.8% | % inhibition cell viability ([3]; 200 μM): 24.6% | effect on cell viability (in words) [3]: did not modify cell viability
